“Also recorded” adds a separate entry of the source.
Key:
[1] = test system: phosphorylated S6 protein; conditions: lung tissue concentration
Excerpt: In the mouse strain used (C57bl/6), the mouse airway and alveolar epithelial cells have constitutively active (phosphorylated, “p”) S6 protein.

[2] = Determination of rapamycin in lung and blood following oropharyngeal aspiration (OPA) and oral gavage (LC-MS/MS); assay type: in vivo, male C57BL/6 mice; conditions: 1 mg/kg; for Blood concentration of rapamycin: OPA, 72 h post-dose
Experimental: Source (for oral gavage): Rapamune Oral® (Pfizer) for oral administration, Lot No.: MWGT, Expiration: July 2016.
Animals: Male C57BL/6 mice, approximately 8 weeks of age, from Charles River Laboratories, Inc, Raleigh, NC. Animals were fed Certified Purina Rodent Chow #5002 and were furnished tap water ad libitum. The analysis of each feed batch for nutrient levels and possible contaminants was performed by the supplier, examined by the Study Director, and maintained in the study records. […] Mice were housed (one per cage) in polycarbonate cages with stainless steel bar lids accommodating a water bottle. Cage sizes are approximately 11.5″×7.5″×5″ high (70 sq. in. floor space) for mice. Contact bedding was Sani-Chips hardwood chips (P. J. Murphy Forest Products Co.; Montville, NJ). Mice were quarantined for a period of 5 days before use on a study. A veterinarian or qualified designee examined the animals prior to their release from quarantine. Temperature and relative humidity in RTI animal rooms were continuously monitored, controlled, and recorded using an automated system (Siebe/Barber-Colman Network 8000 System with Revision 4.4.1 for Signal® software [Siebe Environmental Controls (SEC)/Barber-Colman Company; Loves Park, IL]). The target environmental ranges were 64-79° F. (18° C.-26° C.) for temperature and 30-70% relative humidity, with a 12-h light cycle per day. At the end of the in-life phase, the mice were euthanized by overexposure to carbon dioxide. […]
Dosing: Each animal was weighed prior to dosing to determine the amount of dose to be administered. […] The dose administered to each animal was determined from the weight of the full syringe minus that of the empty syringe. The dosing time was recorded. […]
The concentrations of standards were arranged so that each standard came from an alternate stock standard. A six-point calibration curve, each made in triplicate, was employed for analyte quantitation. […] The concentration range determined was from 1-2000 ng/mL in blood and 2-2000 ng/mL in lung homogenate. […]

[3] = test system: renal angiomyolipomas; conditions: oral, up to 2 years, 16 patients; cited from earlier work
[4] = 2012 meta-analysis; cited from earlier work

Blood concentration of rapamycin ([2]; individual animal)	Lung concentration of rapamycin ([2]; gavage (Rapamune Oral), 1 h post-dose, individual animal)	Compound	Drug in the lung that substantially abrogates mTOR signaling as measured by pS6 [1]	Blood concentration of rapamycin ([2]; group)	Renal angiomyolipoma response [3]	Cancer patients that may experience mild grade (pulmonary) toxicity [4]
<ELOQ	<LOQ	CO[C@H]1C[C@@H]2CC[C@@H](C)[C@@](O)(O2)C(=O)C(=O)N2CCCC[C@H]2C(=O)O[C@H]([C@H](C)C[C@@H]2CC[C@@H](O)[C@H](OC)C2)CC(=O)[C@H](C)/C=C(\C)[C@@H](O)[C@@H](OC)C(=O)[C@H](C)C[C@H](C)/C=C/C=C/C=C/1C [Rapamycin, (3S,6R,7E,9R,10R,12R,14S,15E,17E,19E,21S,23S,26R,27R,34aS)-9,10,12,13,-14,21,22,23,24,25,26,27,32,33,34,34a-hexadecahydro-9,27-dihydroxy-3-[(1R)-2-[(1S,3R,4R)-4-hydroxy-3-methoxycyclohexyl]-1-methylethyl]-10,21-dimethox-y-6,8,12,14,20,26-hexamethyl-23,27-epoxy-3H-pyrido[2,1-c][1,4]oxaazacyclohentriacontine-1,5,11,28,29(4H,6H,31H)-pentone]	about 70 ng/g	below the limit of quantitation; also recorded: undetectable	sustained regression	
		CO[C@H]1C[C@@H]2CC[C@@H](C)[C@@](O)(O2)C(=O)C(=O)N2CCCC[C@H]2C(=O)O[C@H]([C@H](C)C[C@@H]2CC[C@@H](OCCO)[C@H](OC)C2)CC(=O)[C@H](C)/C=C(\C)[C@@H](O)[C@@H](OC)C(=O)[C@H](C)C[C@H](C)/C=C/C=C/C=C/1C [everolimus]				10%
		CO[C@H]1C[C@@H]2CC[C@@H](C)[C@@](O)(O2)C(=O)C(=O)N2CCCC[C@H]2C(=O)O[C@H]([C@H](C)C[C@@H]2CC[C@@H](OC(=O)C(C)(CO)CO)[C@H](OC)C2)CC(=O)[C@H](C)/C=C(\C)[C@@H](O)[C@@H](OC)C(=O)[C@H](C)C[C@H](C)/C=C/C=C/C=C/1C [temsirolimus]				10%

— patent US12171874B2 (OrphAI Therapeutics Inc., priority 2013, dated 2024)
